Article PMC9596378, “Discovery and molecular basis of subtype-selective cyclophilin inhibitors” (Nature Chemical Biology, 2022)
“And” between values parts separate entries of the source, which are not always exact repeats. Identical values can stand only once. Like-named read-outs stand apart in the source and are kept apart here. Values belong to the compound of their own block, whether it stands above or below them.

Tests used:
[1] = biological target: CypD (Homo sapiens, UniProt P30405); experiment: Chymotrypsin coupled prolyl-isomerase assay; conditions: for CypD prolyl-isomerase assay raw dose-response value: Fig. 3b source data, replicates
Sequence of CypD (P30405 45-207): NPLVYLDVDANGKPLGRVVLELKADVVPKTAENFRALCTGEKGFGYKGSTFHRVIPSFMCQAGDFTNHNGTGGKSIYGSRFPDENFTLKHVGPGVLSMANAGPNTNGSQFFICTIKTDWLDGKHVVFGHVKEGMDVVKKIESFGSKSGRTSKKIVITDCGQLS

[2] = biological target: T1, CypB (Homo sapiens, UniProt P23284); experiment: biochemical; conditions: for CypB prolyl-isomerase assay raw dose-response value: Fig. 3b source data, replicates
T1 construct: PPIB (UniProtKB Entry P23284: residues 34–216); His6 with TEV site (2BT vector leader) (N); made in house; host or cells: E. coli BL21(DE3)
T1 sequence (P23284 34-216): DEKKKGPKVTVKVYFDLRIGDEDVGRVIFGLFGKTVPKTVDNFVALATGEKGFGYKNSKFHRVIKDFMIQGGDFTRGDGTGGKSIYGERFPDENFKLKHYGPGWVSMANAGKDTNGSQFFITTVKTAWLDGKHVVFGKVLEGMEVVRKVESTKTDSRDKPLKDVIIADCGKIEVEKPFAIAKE
Procedure, shortened: (§1)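 Chymotrypsin-coupled cis–trans isomerization of Suc-AAPF-AMC (5 µM) catalysed by 5 nM cyclophilin, run cold (2–3 °C) at pH 7.3 with 5 min compound preincubation.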

[3] = biological target: T2, PPWD1 (Homo sapiens, UniProt Q96BP3); experiment: Chymotrypsin coupled prolyl-isomerase assay; format: biochemical; conditions: for PPWD1 prolyl-isomerase assay raw dose-response value: Fig. 3b source data, replicates
T2 construct: PPWD1 (UniProtKB Entry Q96BP3: residues 473–646); host or cells: E. coli BL21(DE3)
T2 sequence (Q96BP3 473-646): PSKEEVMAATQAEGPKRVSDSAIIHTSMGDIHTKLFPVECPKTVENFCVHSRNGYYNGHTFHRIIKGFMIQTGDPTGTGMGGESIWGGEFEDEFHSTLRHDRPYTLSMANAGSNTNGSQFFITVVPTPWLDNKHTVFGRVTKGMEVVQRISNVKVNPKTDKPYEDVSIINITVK

[4] = biological target: T3, NKTR (Homo sapiens, UniProt P30414); experiment: Chymotrypsin coupled prolyl-isomerase assay; format: biochemical; conditions: for NKTR prolyl-isomerase assay raw dose-response value: Fig. 3b source data, replicates
T3 construct: NKTR (UniProtKB Entry P30414: residues 7–179); host or cells: E. coli BL21(DE3)
T3 sequence (P30414 7-179): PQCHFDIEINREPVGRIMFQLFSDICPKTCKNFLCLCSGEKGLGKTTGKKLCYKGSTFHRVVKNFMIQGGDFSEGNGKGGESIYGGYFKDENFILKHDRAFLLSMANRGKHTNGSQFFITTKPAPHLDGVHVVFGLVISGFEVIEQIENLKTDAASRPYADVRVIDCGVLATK

[5] = biological target: Cyp40 (Homo sapiens, UniProt Q08752); experiment: Chymotrypsin coupled prolyl-isomerase assay; conditions: for Cyp40 prolyl-isomerase assay raw dose-response value: Fig. 3b source data, replicates
Sequence of Cyp40 (Q08752 1-183): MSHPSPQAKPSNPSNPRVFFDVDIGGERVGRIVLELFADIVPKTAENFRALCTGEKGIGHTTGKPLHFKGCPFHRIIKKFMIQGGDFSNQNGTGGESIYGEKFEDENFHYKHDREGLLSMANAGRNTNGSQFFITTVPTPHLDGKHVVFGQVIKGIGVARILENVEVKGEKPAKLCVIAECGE
Procedure, shortened: as §1

[6] = biological target: T4, PPIL1 (Homo sapiens, UniProt Q9Y3C6); experiment: Chymotrypsin coupled prolyl-isomerase assay; format: biochemical; conditions: for PPIL1 prolyl-isomerase assay raw dose-response value: Fig. 3b source data, replicates; for IC50: wild-type PPIL1, read-out: Wild-Type Cyclophilin Prolyl Isomerase Inhibition IC50 Values, PPIL1
T4 construct: PPIL1 (UniProtKB Entry Q9Y3C6: residues 1–166); made in house; host or cells: E. coli BL21(DE3)
T4 sequence (Q9Y3C6 1-166): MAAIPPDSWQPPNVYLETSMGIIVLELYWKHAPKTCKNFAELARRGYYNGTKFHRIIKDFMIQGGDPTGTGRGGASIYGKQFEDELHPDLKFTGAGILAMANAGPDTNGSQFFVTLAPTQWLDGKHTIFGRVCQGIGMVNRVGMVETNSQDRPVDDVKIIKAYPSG
Experimental: Adapting a previously described protocol[51], with an Agilent Bravo Velocity 11 with a 384ST head, 90 µL assay buffer (25 mM HEPES pH 7.3, 100 mM NaCl, 0.01% Triton X-100) containing 5.28 nM cyclophilin was added into a flat, clear-bottom, black 384-well plate pre-chilled in a Corning CoolBox at 2–3 °C. Five microliters of compound pre-dissolved in 5% DMSO/assay buffer was then added to appropriate wells and incubated at 2–3 °C for 5 min. Five microliters of 0.5 mM α-chymotrypsin from bovine pancreas (Type II, lyophilized powder, Millipore-Sigma) in 20% 1 mM HCl/Assay Buffer was then added to each well and incubated at 2–3 °C for 5 min. […] Using the internal liquid handling system of the FLIPR, 1 µL 0.5 mM Suc-AAPF-AMC (Chymotrypsin Substrate II, Millipore-Sigma) dissolved in 0.55 M LiCl/2,2,2-trifluoroethanol was added to each well, which was then mixed for 5 s, followed by immediate fluorescence measurements every 1 s for 330 s using a 360–380 nm excitation LED module and a 400–460 nm emission filter. Final concentrations of the plate include 5 nM cyclophilin, 0.25% DMSO, 25 µM α-chymotrypsin, 5 µM Suc-AAPF-AMC. Raw fluorescence data was analyzed by non-linear regression analysis with Prism v.9 by fitting one-phase association curves to each well. Analyses were halted after the calculated maximum fluorescent value owing to observed fluorescent bleaching during the sustained fluorescent plateau. Rate constants calculated for each well (s^−1) were then normalized to substrate only (no prolyl-isomerase) and enzyme + substrate only controls. IC50 values were calculated as the value at which 50% inhibition was achieved on the non-linear regression fitted curve of each compound.

[7] = wild-type CypB, read-out: Wild-Type Cyclophilin Prolyl Isomerase Inhibition IC50 Values, CypB
[8] = wild-type PPWD1, read-out: Wild-Type Cyclophilin Prolyl Isomerase Inhibition IC50 Values, PPWD1
[9] = wild-type NKTR, read-out: Wild-Type Cyclophilin Prolyl Isomerase Inhibition IC50 Values, NKTR
[10] = Wild-Type Cyclophilin Prolyl Isomerase Inhibition IC50 Values, Cyp40, wild-type Cyp40
[11] = prolyl-isomerase inhibition, 5 nM cyclophilin, read-out: IC50 NKTR

SMILES: NCCOCCNC(=O)[C@@H]1CCNC(=O)/C=C/C(=O)N2CCC[C@](Cc3ccccc3)(C2)C(=O)N[C@@H](Cc2ccc(-c3ccc(C#CC(=O)O)cc3)cc2)C(=O)NCc2ccccc2CC(=O)N1 [Compound B25]
IC50 [1]: 0.003 µM | CypD prolyl-isomerase assay raw dose-response value ([1]; Dose 0.000457247 µM): 0.0674 and 0.06729 and 0.07005 | CypD prolyl-isomerase assay raw dose-response value ([1]; Dose 0.00137174 µM): 0.06909 and 0.05826 and 0.0465 | CypD prolyl-isomerase assay raw dose-response value ([1]; Dose 0.00411523 µM): 0.04183 and 0.04697 and 0.03133 | CypD prolyl-isomerase assay raw dose-response value ([1]; Dose 0.0123457 µM): 0.02432 and 0.02391 and 0.02276 | CypD prolyl-isomerase assay raw dose-response value ([1]; Dose 0.037037 µM): 0.01562 and 0.01516 and 0.01481 | CypD prolyl-isomerase assay raw dose-response value ([1]; Dose 0.111111 µM): 0.01259 and 0.0133 and 0.01227 | CypD prolyl-isomerase assay raw dose-response value ([1]; Dose 0.333333 µM): 0.01238 and 0.01154 and 0.0111 | CypD prolyl-isomerase assay raw dose-response value ([1]; Dose 1 µM): 0.01437 and 0.01145 and 0.01083 | IC50 ([2]; CypB (comparator for CypB E121S), read-out: Mutant Cyclophilin Prolyl Isomerase Inhibition IC50 Values, CypB): 0.011 µM | CypB prolyl-isomerase assay raw dose-response value ([2]; Dose 0.000457247 µM): 0.06463 and 0.04091 and 0.06594 | CypB prolyl-isomerase assay raw dose-response value ([2]; Dose 0.00137174 µM): 0.06615 and 0.04875 and 0.05304 | CypB prolyl-isomerase assay raw dose-response value ([2]; Dose 0.00411523 µM): 0.04683 and 0.04984 | CypB prolyl-isomerase assay raw dose-response value ([2]; Dose 0.0123457 µM): 0.03647 and 0.03228 and 0.03371 | CypB prolyl-isomerase assay raw dose-response value ([2]; Dose 0.037037 µM): 0.02322 and 0.02268 and 0.02146 | CypB prolyl-isomerase assay raw dose-response value ([2]; Dose 0.111111 µM): 0.01709 and 0.01633 and 0.0158 | CypB prolyl-isomerase assay raw dose-response value ([2]; Dose 0.333333 µM): 0.01481 and 0.01358 and 0.01262 | CypB prolyl-isomerase assay raw dose-response value ([2]; Dose 1 µM): 0.01394 and 0.01269 and 0.01205 | IC50 ([2]; prolyl-isomerase inhibition, 5 nM cyclophilin, read-out: IC50 CypB): 0.011 ± 0.003 µM | IC50 [2, 7]: 0.011 µM | PPWD1 prolyl-isomerase assay raw dose-response value ([3]; Dose 0.0228624 µM): 0.03895 and 0.0361 and 0.043 | PPWD1 prolyl-isomerase assay raw dose-response value ([3]; Dose 0.0685871 µM): 0.04294 and 0.03257 and 0.04643 | PPWD1 prolyl-isomerase assay raw dose-response value ([3]; Dose 0.205761 µM): 0.03704 and 0.0362 | PPWD1 prolyl-isomerase assay raw dose-response value ([3]; Dose 0.617284 µM): 0.03731 (2×) and 0.0336 | PPWD1 prolyl-isomerase assay raw dose-response value ([3]; Dose 1.85185 µM): 0.03718 and 0.0343 and 0.0411 | PPWD1 prolyl-isomerase assay raw dose-response value ([3]; Dose 5.55556 µM): 0.03268 and 0.0311 and 0.02851 | PPWD1 prolyl-isomerase assay raw dose-response value ([3]; Dose 16.6667 µM): 0.02501 and 0.02576 and 0.02254 | PPWD1 prolyl-isomerase assay raw dose-response value ([3]; Dose 50 µM): 0.01888 and 0.01599 and 0.01588 | IC50 ([3]; prolyl-isomerase inhibition, 5 nM cyclophilin, read-out: IC50 PPWD1): ~10 µM | IC50 [3, 8]: 10 µM | NKTR prolyl-isomerase assay raw dose-response value ([4]; Dose 0.0228624 µM): 0.03241 and 0.03231 and 0.03444 | NKTR prolyl-isomerase assay raw dose-response value ([4]; Dose 0.0685871 µM): 0.03299 and 0.03067 and 0.03202 | NKTR prolyl-isomerase assay raw dose-response value ([4]; Dose 0.205761 µM): 0.03236 and 0.03203 | NKTR prolyl-isomerase assay raw dose-response value ([4]; Dose 0.617284 µM): 0.03089 and 0.03188 and 0.03316 | NKTR prolyl-isomerase assay raw dose-response value ([4]; Dose 1.85185 µM): 0.03191 and 0.03168 and 0.03161 | NKTR prolyl-isomerase assay raw dose-response value ([4]; Dose 5.55556 µM): 0.03134 and 0.03255 and 0.03129 | NKTR prolyl-isomerase assay raw dose-response value ([4]; Dose 16.6667 µM): 0.03138 and 0.0295 and 0.03008 | NKTR prolyl-isomerase assay raw dose-response value ([4]; Dose 50 µM): 0.02697 and 0.02369 and 0.02457 | IC50 [4, 9]: > 50 µM | Cyp40 prolyl-isomerase assay raw dose-response value ([5]; Dose 0.00457247 µM): 0.06429 and 0.05599 and 0.07223 | Cyp40 prolyl-isomerase assay raw dose-response value ([5]; Dose 0.0137174 µM): 0.05813 and 0.05507 and 0.05318 | Cyp40 prolyl-isomerase assay raw dose-response value ([5]; Dose 0.0411523 µM): 0.04821 and 0.05825 and 0.0731 | Cyp40 prolyl-isomerase assay raw dose-response value ([5]; Dose 0.123457 µM): 0.04592 and 0.05196 and 0.05288 | Cyp40 prolyl-isomerase assay raw dose-response value ([5]; Dose 0.37037 µM): 0.03591 and 0.03468 and 0.03748 | Cyp40 prolyl-isomerase assay raw dose-response value ([5]; Dose 1.11111 µM): 0.02292 and 0.02127 and 0.02239 | Cyp40 prolyl-isomerase assay raw dose-response value ([5]; Dose 3.33333 µM): 0.01681 and 0.01439 and 0.01521 | Cyp40 prolyl-isomerase assay raw dose-response value ([5]; Dose 10 µM): 0.01651 and 0.01201 and 0.01273 | IC50 [5, 10]: 0.21 µM | PPIL1 prolyl-isomerase assay raw dose-response value ([6]; Dose 0.0228624 µM): 0.0374 and 0.04134 and 0.04686 | PPIL1 prolyl-isomerase assay raw dose-response value ([6]; Dose 0.0685871 µM): 0.02743 and 0.02671 and 0.02724 | PPIL1 prolyl-isomerase assay raw dose-response value ([6]; Dose 0.205761 µM): 0.01848 and 0.01869 | PPIL1 prolyl-isomerase assay raw dose-response value ([6]; Dose 0.617284 µM): 0.01432 and 0.01378 and 0.01288 | PPIL1 prolyl-isomerase assay raw dose-response value ([6]; Dose 1.85185 µM): 0.01263 and 0.01274 and 0.01211 | PPIL1 prolyl-isomerase assay raw dose-response value ([6]; Dose 5.55556 µM): 0.01183 and 0.01164 and 0.01059 | PPIL1 prolyl-isomerase assay raw dose-response value ([6]; Dose 16.6667 µM): 0.01229 and 0.01158 and 0.01139 | PPIL1 prolyl-isomerase assay raw dose-response value ([6]; Dose 50 µM): 0.01421 and 0.01181 and 0.01108 | IC50 [6]: 0.02 µM

IC50 ([1]; read-out: Wild-Type Cyclophilin Prolyl Isomerase Inhibition IC50 Values, CypD, wild-type CypD): 0.007 µM | IC50 [2, 7]: 0.4 µM | IC50 [3, 8]: > 10 µM | IC50 [4, 11]: ~7 µM | IC50 [4, 9]: 7 µM | IC50 ([5]; read-out: Wild-Type Cyclophilin Prolyl Isomerase Inhibition IC50 Values, Cyp40, wild-type Cyp40): > 10 µM | IC50 [6]: 4 µM
SMILES: C[N+]1=C(C=CC=CC=C2N(CCCCCC(=O)NCCNC(=O)C3CCNC(=O)C=CC(=O)N4CCCC(Cc5ccccc5)(C4)C(=O)NC(Cc4ccc(-c5ccc(CC(C(=O)O)C(=O)O)cc5)cc4)C(=O)NCc4ccccc4CC(=O)N3)c3ccccc3C2(C)C)C(C)(C)c2ccccc21 (centres unmarked) [Compound B52-Cy5]

SMILES: NCCCc1ccc(-c2ccc(C[C@@H]3NC(=O)[C@]4(Cc5ccccc5)CCCN(C4)C(=O)/C=C/C(=O)NCC[C@@H](C(=O)NCCOCCN)NC(=O)Cc4ccccc4CNC3=O)cc2)cc1 [Compound B32]
IC50 [1]: 6 µM | reduction in potency for CypD on replacing the carboxylate with an amine [1]: 500- to 1,000 fold | IC50 [2, 7]: 3 µM | IC50 [3, 8]: 0.8 µM | IC50 [4, 9]: > 50 µM | IC50 [5, 10]: 4 µM | IC50 [6]: 2 µM

IC50 [1]: 17 µM | IC50 ([1]; IC50 CypD trans, trans olefin isomer): 17 ± 2 µM | IC50 ([1]; Wild-Type Cyclophilin Prolyl Isomerase Inhibition IC50 Values, CypD, wild-type CypD): 17 µM | IC50 [2, 7]: 5 µM | IC50 [3, 8]: > 100 µM | IC50 [4, 11]: ~60 µM | IC50 [4, 9]: 60 µM | IC50 [5, 10]: 19 µM | IC50 [6]: 40 µM
SMILES: NCCOCCNC(=O)C1CCNC(=O)C=CC(=O)N2CCCC(C2)C(=O)NC(Cc2ccco2)C(=O)NCc2ccccc2CC(=O)N1 (centres unmarked) [JOMBt]
